Source: patent US20250011364A1, “TUMOR TISSUE-PENETRATING PEPTIDE, SPECIFICALLY BINDING TO NEUROPILIN 1, FOR DRUG DELIVERY TO TUMOR, AND USE THEREOF” (CELLICON LAB INC., priority 2022, published 2025)

Assays:
AsPC-1 cells = assay: MTT assay: improvement of anticancer efficacy of doxorubicin; assay type: cell-based; conditions: 48 hours, compared to the group treated with only doxorubicin (FIG. 1)
Description: In order to examine the function of the present invention as a tumor tissue-penetrating peptide, the effect of the present invention on improving the anticancer efficacy of doxorubicin was evaluated. Specifically, the effect of a tumor tissue-penetrating peptide consisting of any one amino acid sequence selected from SEQ ID NO: 5 to SEQ ID NO: 8 of the present invention and SEQ ID NO: 1 to SEQ ID NO: 4, derivatives thereof, on improving the anticancer efficacy of doxorubicin was evaluated.
Specifically, in order to evaluate the effect of improving anticancer efficacy, AsPC-1 cells were used to perform the MTT assay, and cell viability was analyzed and compared (FIG. 1).
Pancreatic cancer cells (AsPC-1) were cultured in 96-well plates at 2×10^5 cells/ml for 24 hours, then treated with samples at various concentrations, and cultured for another 48 hours. […] After 4 hours, the MTT solution was removed, DMSO was added to each well to dissolve formazan at 37° C. for 30 minutes, and then the absorbance was measured at 570 nm using a microplate reader (Molecular Devices Spectra MAX, Sunnyvale, CA, USA). In all experiments, the results were statistically processed by taking the average value for three wells for each concentration, and expressed as a relative viability (%) compared to that in the group treated with no sample.

AsPC-1 xenograft [1] = assay: Tumor tissue penetration of doxorubicin, confocal microscopy of tumor slides; assay type: in vivo, mice; conditions: peptide 5 μM/kg iv, doxorubicin 10 mg/kg iv 10 minutes later, tumor extracted 24 hours later; vs doxorubicin only and doxorubicin + iRGD (FIG. 4)
Description: In order to examine the effect of the peptide of SEQ ID NO: 8 of the present invention on improving the tumor tissue-penetrating ability of a physiologically active substance, tumor-induced AsPC-1 xenograft mice were treated with only doxorubicin, doxorubicin and iRGD as a positive control, or with tumor tissue-penetrating peptide, and the effect was compared.
Specifically, iRGD or tumor tissue-penetrating peptide (5 μM/kg) was injected intravenously (iv) into AsPC-1 xenograft mice, doxorubicin (Dox; 10 mg/kg) was injected intravenously 10 minutes later, and then the tumor was extracted 24 hours later to construct paraffin slides. The slides were stained with anti-CD31-FITC (vascular endothelial cell marker), and Dox (red)/CD31 (FITC) was analyzed using a confocal microscope.

AsPC-1 xenograft [2] = assay: Tumor tissue penetration of FITC-albumin, confocal microscopy; assay type: in vivo, mice; conditions: FITC-albumin iv in conjugation/combination with peptide vs singly, tumor extracted 1, 3 and 24 hours later (FIG. 5)
Description: In order to examine the effect of the peptide of SEQ ID NO: 8 of the present invention on improving the tumor tissue-penetrating ability of physiologically active substances, FITC-albumin was injected intravenously (iv) singly or in conjugation/combination with the tumor tissue-penetrating peptide (five minutes) into tumor-induced AsPC-1 xenograft mice, the tumor was extracted 1, 3, and 24 hours later, and analysis was performed using a confocal microscope (albumin molecular weight: about 70 kDa).

NRP-1 = NRP-1 (Homo sapiens, UniProt O14786); assay: Competitive ELISA assay, inhibition of VEGF 165 binding to NRP-1; conditions: NRP-1 treated with peptide and VEGF, competitive ELISA (FIG. 6)
NRP-1, sequence (O14786 22-923): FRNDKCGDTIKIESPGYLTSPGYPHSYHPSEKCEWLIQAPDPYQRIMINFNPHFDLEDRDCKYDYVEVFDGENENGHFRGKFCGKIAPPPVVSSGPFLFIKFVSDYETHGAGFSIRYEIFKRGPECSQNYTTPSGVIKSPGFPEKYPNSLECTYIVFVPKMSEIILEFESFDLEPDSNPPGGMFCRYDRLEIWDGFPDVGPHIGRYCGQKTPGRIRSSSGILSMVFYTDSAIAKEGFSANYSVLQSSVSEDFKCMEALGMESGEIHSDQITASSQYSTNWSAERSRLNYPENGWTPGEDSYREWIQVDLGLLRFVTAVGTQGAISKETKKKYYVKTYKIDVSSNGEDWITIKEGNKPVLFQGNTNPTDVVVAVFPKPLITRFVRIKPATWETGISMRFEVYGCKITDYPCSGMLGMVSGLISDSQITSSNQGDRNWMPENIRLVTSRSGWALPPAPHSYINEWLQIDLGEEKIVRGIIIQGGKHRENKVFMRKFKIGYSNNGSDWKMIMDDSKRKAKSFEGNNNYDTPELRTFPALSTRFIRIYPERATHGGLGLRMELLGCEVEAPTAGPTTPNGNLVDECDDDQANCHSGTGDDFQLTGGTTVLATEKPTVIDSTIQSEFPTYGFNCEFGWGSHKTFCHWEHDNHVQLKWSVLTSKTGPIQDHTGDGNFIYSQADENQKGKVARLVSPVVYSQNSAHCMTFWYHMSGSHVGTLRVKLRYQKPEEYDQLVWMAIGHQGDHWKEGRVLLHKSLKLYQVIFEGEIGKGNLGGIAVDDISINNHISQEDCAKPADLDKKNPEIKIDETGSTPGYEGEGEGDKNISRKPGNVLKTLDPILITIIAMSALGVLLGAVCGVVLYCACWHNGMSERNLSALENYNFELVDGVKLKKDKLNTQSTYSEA
Text: Therefore, the tumor tissue-penetrating peptide is more likely to bind to NRP-1 competitively, and thus can interfere with neovascularization, and this means that the tumor tissue-penetrating peptide can suppress tumor growth (FIG. 6).

Question: What does the source list for “H2N-[Arg-Lys-Leu-Phe-Arg-Lys-Ile-Leu-Lys-Tyr-Leu-Arg]-CO2H (RKLFRKILKYLR) [SEQ ID NO: 8, tumor tissue-penetrating peptide]”?
Answer: effect of improving anticancer efficacy of doxorubicin (cell viability) (AsPC-1 cells): most effective; tumor tissue-penetrating ability of doxorubicin (AsPC-1 xenograft [1]): significantly superior; tumor-penetrating ability of albumin (AsPC-1 xenograft [2]): increased; NRP-1 binding of VEGF165 (NRP-1): decreases
